BindingDB's records for doi:10.7270/Q2SN07C4 (Vanderbilt Screening Center for GPCRs, Ion Channels and …, 2009)
pEC50: −log10 of the molar value.

Target: T1, Muscarinic acetylcholine receptor M4 (Rattus norvegicus, UniProt P08485)
T1 sequence (P08485 whole entry): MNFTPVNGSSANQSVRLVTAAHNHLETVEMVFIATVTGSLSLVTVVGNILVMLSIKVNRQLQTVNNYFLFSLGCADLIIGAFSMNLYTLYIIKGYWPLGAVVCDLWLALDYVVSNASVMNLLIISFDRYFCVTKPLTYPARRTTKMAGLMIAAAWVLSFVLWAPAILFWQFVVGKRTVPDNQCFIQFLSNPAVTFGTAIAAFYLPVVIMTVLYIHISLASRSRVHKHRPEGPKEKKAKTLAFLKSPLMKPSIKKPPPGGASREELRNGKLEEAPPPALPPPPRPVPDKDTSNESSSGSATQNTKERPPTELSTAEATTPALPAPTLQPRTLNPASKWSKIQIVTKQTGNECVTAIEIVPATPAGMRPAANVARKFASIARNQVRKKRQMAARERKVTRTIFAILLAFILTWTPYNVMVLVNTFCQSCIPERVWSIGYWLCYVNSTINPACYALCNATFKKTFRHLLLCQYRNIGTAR
Experiment: effects on NMS binding at M4, late-stage follow-up, mechanism study for M4 PAM project, biochemical, NMS competition, rat M4 (AID 1939)

## Cc1cc(C)c2c(N)c(C(=O)NCc3ccc4c(c3)OCO4)sc2n1 [3-amino-4,6-dimethyl-N-piperonyl-thieno[2,3-b]pyridine-2-carboxamide]
  pEC50: > 5.85
